Assay results reported in PMC9241945 (Microbiology Spectrum, 2022).
pKd: −log10 of the molar value.

Target: T1, CTP synthase PyrG (Staphylococcus aureus, UniProt A6QIX1)
T1 construct: pyrG from S. aureus Newman in pET-28a, purified on Ni-NTA
Experiment: intrinsic fluorescence quenching titration
Format: binding

T1 sequence (A6QIX1 whole entry): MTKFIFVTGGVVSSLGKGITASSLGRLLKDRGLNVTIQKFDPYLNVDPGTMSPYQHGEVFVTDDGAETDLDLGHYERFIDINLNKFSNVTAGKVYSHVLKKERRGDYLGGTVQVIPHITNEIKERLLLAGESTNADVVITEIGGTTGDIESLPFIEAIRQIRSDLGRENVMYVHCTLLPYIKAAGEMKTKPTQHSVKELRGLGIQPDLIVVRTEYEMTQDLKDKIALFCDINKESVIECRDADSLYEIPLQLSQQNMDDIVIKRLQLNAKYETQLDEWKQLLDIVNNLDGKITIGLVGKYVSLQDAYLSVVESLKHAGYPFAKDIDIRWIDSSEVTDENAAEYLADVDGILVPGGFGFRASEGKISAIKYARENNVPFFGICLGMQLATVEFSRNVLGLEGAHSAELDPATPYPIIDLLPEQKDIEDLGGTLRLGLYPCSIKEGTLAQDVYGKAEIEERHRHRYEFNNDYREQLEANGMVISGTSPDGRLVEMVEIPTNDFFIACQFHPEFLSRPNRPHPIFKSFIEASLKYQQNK

Nc1ncnc2c1ncn2[C@@H]1O[C@H](COP(=O)(O)OP(=O)(O)OP(=O)(O)O)[C@@H](O)[C@H]1O [ATP]
pKd: 3.49
